Experimental data published in US6444677B2, “5-membered heteroaryl substituted 1,4-dihydropyridine compounds as bradykinin antagonists” (Pfizer Inc., priority 1999, dated 2002).
Structures can show the parent of a compound that is named as a salt.

Row | Structure (SMILES) | melting point
1 | COC(=O)C1=C(CCc2nccs2)NC(CC(=O)N2CCN(CC(C)(C)CNC(C)=O)CC2)=C(C(=O)OC)C1c1c(Cl)cccc1Cl (stereo not shown) [Example 16, Dimethyl 2-[2-[4-[3-(acetylamino)-2,2-dimethylpropyl]-1-piperazinyl]-2-oxoethyl]-4-(2,6-dichlorophenyl)-6-[2-(1,3-thiazol-2-yl)ethyl]-1,4-dihydro-3,5 pyridinedicarboxylate] | 104 to 107 °C
2 | COC(=O)C1=C(CCc2nccs2)NC(CC(=O)N2CCN(CC3(N)CCCCC3)CC2)=C(C(=O)OC)C1c1c(Cl)cccc1Cl (stereo not shown) (as salt: HCl) [Example 6, Dimethyl 2-[2-[4-[(1-aminocyclohexyl)methyl]-1-piperazinyl]-2-oxoethyl]4-(2,6-dichlorophenyl)-6-[2-(1,3-thiazol-2-yl)ethyl]-1,4-dihydro-3,5-pyridinedicarboxylate] | 210 to 220 °C (dec.)
3 | COC(=O)C1=C(CCc2nccs2)NC(CC(=O)N2CCN(CC3(CN)CCCC3)CC2)=C(C(=O)OC)C1c1c(Cl)cccc1Cl (stereo not shown) [Example 17, Dimethyl 2-[2-[4-[[1-(aminomethyl)cyclopentyl]methyl]-1-piperazinyl]-2-oxoethyl]-4-(2,6-dichlorophenyl)-6-[2-(1,3-thiazol-2-yl)ethyl]-1,4-dihydro-3,5-pyridinedicarboxylate] | 161 to 164 °C
4 | COC(=O)C1=C(CCc2nccs2)NC(CC(=O)N2CCN(CC(C)(C)CNS(C)(=O)=O)CC2)=C(C(=O)OC)C1c1c(Cl)cccc1Cl (stereo not shown) [Example 13, Dimethyl 4-(2,6-dichlorophenyl)-2-[2-[4-[2,2-dimethyl-3-[(methylsulfonyl)amino]propyl]-1-piperazinyl]-2-oxoethyl]-6-[2-(1,3-thiazol-2-yl)ethyl]-1,4-dihydro-3,5-pyridinedicarboxylate] | 132 to 136 °C
5 | COC(=O)C1=C(CCc2nccs2)NC(CC(=O)N2CCN(CC(C)(C)C#N)CC2)=C(C(=O)OC)C1c1c(Cl)cccc1Cl (stereo not shown) [Example 15, Dimethyl 2-[2-[4-(2-cyano-2-methylpropyl)-1-piperazinyl]-2-oxoethyl]-4-(2,6-dichlorophenyl)-6-[2-(1,3-thiazol-2-yl)ethyl]-1,4-dihydro-3,5-pyridinedicarboxylate] | 120 to 122 °C
6 | COC(=O)C1=C(CCc2nccs2)NC(CC(=O)N2CCN(CC3(CN)CCCCC3)CC2)=C(C(=O)OC)C1c1c(Cl)cccc1Cl (stereo not shown) (as salt: HCl) [Example 2, Dimethyl 2-[2-[4-[[1-(aminomethyl)cyclohexyl]methyl]-1-piperazinyl]-2-oxoethyl]-4-(2,6-dichlorophenyl)-6-[2-(1,3-thiazol-2-yl)ethyl]-1,4-dihydro-3,5-pyridinedicarboxylate] | 206 to 210 °C (dec.)
7 | COC(=O)C1=C(CCc2nccs2)NC(CC(=O)N2CCN(CC3(CNC4CCCC4)CCCC3)CC2)=C(C(=O)OC)C1c1c(Cl)cccc1Cl (stereo not shown) (as salt: HCl) [Example 11, Dimethyl 2-[2-[4-[[1-[(cyclopentylamino)methyl]cyclopentyl]methyl]-1-piperazinyl]-2-oxoethyl]-4-(2,6dichlorophenyl)-6-[2-(1,3-thiazol-2-yl)ethyl]-1,4-dihydro-3,5-pyridinedicarboxylate] | 174 to 177 °C (dec.)
8 | COC(=O)C1=C(CCc2nccs2)NC(CC(=O)N2CCN(CC(C)(C)CN)CC2)=C(C(=O)OC)C1c1c(Cl)cccc1Cl (stereo not shown) [Example 18, Dimethyl 2-[2-[4-(3-amino-2,2-dimethylpropyl)-1-piperazinyl]-2-oxoethyl]-4-(2,6-dichlorophenyl)-6-[2-(1,3-thiazol-2-yl)ethyl]-1,4-dihydro-3,5-pyridinedicarboxylate] | 158 to 162 °C
9 | CCN(CC)C1C2CCC1CC(N1CCN(C(=O)CC3=C(C(=O)OC)C(c4c(Cl)cccc4Cl)C(C(=O)OC)=C(CCc4nccs4)N3)CC1)C2 (stereo not shown) (as salt: HCl) [Example 12, Dimethyl 4-(2,6-dichlorophenyl)-2-[2-[4-(8-(diethylamino)bicyclo [3.2.1]oct-3-yl)-1-piperazinyl]-2-oxoethyl]-6-[2-(1,3-thiazol-2-yl)ethyl]-1,4-dihydro-3,5-pyridinedicarboxylate] | 200 to 205 °C (dec.)
10 | COC(=O)C1=C(CCc2nccs2)NC(CC(=O)N2CCN(CC3(C#N)CCCCC3)CC2)=C(C(=O)OC)C1c1c(Cl)cccc1Cl (stereo not shown) (as salt: HCl) [Example 1, Dimethyl 2-[2-[4-[(1-cyanocyclohexyl)methyl]-1-piperazinyl]-2-oxoethyl]-4-(2,6-dichlorophenyl)-6-[2-(1,3-thiazol-2-yl)ethyl]-1,4-dihydro-3,5-pyridinedicarboxylate] | 211 to 213 °C (dec.)
11 | CCNCC1(CN2CCN(C(=O)CC3=C(C(=O)OC)C(c4c(Cl)cccc4Cl)C(C(=O)OC)=C(CCc4nccs4)N3)CC2)CCCCC1 (stereo not shown) (as salt: HCl) [Example 3, Dimethyl 4-(2,6-dichlorophenyl)-2-[2-[4-[[1-[(ethylamino)methyl]cyclohexyl]methyl]-1-piperazinyl]-2-oxoethyl]-6-[2-(1,3-thiazol-2-yl)ethyl]-1,4-dihydro-3,5-pyridinedicarboxylate] | 206 to 210 °C (dec.)

Second part, the molecule after the results:

Row | melting point | Structure (SMILES)
12 | 175 to 180 °C (dec.) | COC(=O)C1=C(CCc2nccs2)NC(CC(=O)N2CCN(CCC3(N4CCCC4=O)CCCC3)CC2)=C(C(=O)OC)C1c1c(Cl)cccc1Cl (stereo not shown) (as salt: HCl) [Example 33, Dimethyl 4-(2,6-dichlorophenyl)-2-[2-oxo-2-[4-[2-[1-(2-oxo-1-pyrrolidinyl)cyclopentyl]ethyl]-1-piperazinyl]ethyl]-6-[2-(1,3-thiazol-2-yl)ethyl]-1,4-dihydro-3,5-pyridinedicarboxylate]
13 | 151 to 155 °C (dec.) | CCC(CC)(CCN1CCN(C(=O)CC2=C(C(=O)OC)C(c3c(Cl)cccc3Cl)C(C(=O)OC)=C(CCc3nccs3)N2)CC1)N1CCCC1=O (stereo not shown) (as salt: HCl) [Example 39, Dimethyl 4-(2,6-dichlorophenyl)-2-[2-[4-[3-ethyl-3-(2-oxo-1-pyrrolidinyl)pentyl]-1-piperazinyl]-2-oxoethyl]-6-[2-(1,3-thiazol-2-yl)ethyl]-1,4-dihydro-3,5-pyridinedicarboxylate]
14 | 188 to 190 °C (dec.) | COC(=O)C1=C(CCc2nccs2)NC(CC(=O)N2CCN(CCC3(O)CCCCC3)CC2)=C(C(=O)OC)C1c1c(Cl)cccc1Cl (stereo not shown) (as salt: HCl) [Example 28, Dimethyl 4-(2,6-dichlorophenyl)-2-[2-[4-[2-(1-hydroxycyclohexyl)ethyl]-1-piperazinyl]-2-oxoethyl]-6-[2-(1,3-thiazol-2-yl)ethyl]-1,4-dihydro-3,5-pyridinedicarboxylate]
15 | 162 to 163 °C (dec.) | CCNCC1(C2CCN(C(=O)CC3=C(C(=O)OC)C(c4c(Cl)cccc4Cl)C(C(=O)OC)=C(CCc4nccs4)N3)CC2)CCCCC1 (stereo not shown) (as salt: HCl) [Example 45, Dimethyl 4-(2,6-dichlorophenyl)-2-[2-[4-[1-[(ethylamino)methyl]cyclohexyl]-1-piperidinyl]-2-oxoethyl]-6-[2-(1,3-thiazol-2-yl)ethyl]-1,4-dihydro-3,5-pyridinedicarboxylate]
16 | 175 to 178 °C (dec.) | COC(=O)C1=C(CCc2nccs2)NC(CC(=O)N2CCN(CCCN3CCC(C)C3=O)CC2)=C(C(=O)OC)C1c1c(Cl)cccc1Cl (stereo not shown) [Example 30, Dimethyl 4-(2,6-dichlorophenyl)-2-[2-[4-[3-(3-methyl-2-oxo-1-pyrrolidinyl)propyl]-1-piperazinyl]-2-oxoethyl]-6-[2-(1,3-thiazol-2-yl)ethyl]-1,4-dihydro-3,5pyridinedicarboxylate]
17 | 158 to 163 °C (dec.) | COC(=O)C1=C(CCc2nccs2)NC(CC(=O)N2CCN(CCC3(C(N)=O)CCCC3)CC2)=C(C(=O)OC)C1c1c(Cl)cccc1Cl (stereo not shown) (as salt: HCl) [Example 43, Dimethyl 2-[2-[4-[2-[1-(aminocarbonyl)cyclopentyl]ethyl]-1-piperazinyl]-2-oxoethyl]-4-(2,6-dichlorophenyl)-6-[2-(1,3-thiazol-2-yl)ethyl]-1,4-dihydro-3,5-pyridinedicarboxylate]
18 | 114 to 116 °C (dec.) | COC(=O)C1=C(CCc2nccs2)NC(CC(=O)N2CCC(C3(CNC(C)=O)CCCCC3)CC2)=C(C(=O)OC)C1c1c(Cl)cccc1Cl (stereo not shown) [Example 44, Dimethyl 2-[2-[4-[1-[(acetylamino)methyl]cyclohexyl]-1-piperidinyl]-2-oxoethyl]-4-(2,6dichlorophenyl)-6-[2-(1,3-thiazol-2-yl)ethyl]-1,4dihydro-3,5-pyridinedicarboxylate]
19 | 182 to 184 °C (dec.) | COC(=O)C1=C(CCc2nccs2)NC(CC(=O)N2CCN(C3CCC(N4CCCC4=O)CC3)CC2)=C(C(=O)OC)C1c1c(Cl)cccc1Cl (stereo not shown) (as salt: HCl) [Example 23, Dimethyl 4-(2,6-dichlorophenyl)-2-[2-oxo-2-[4-[4-(2-oxo-1-pyrrolidinyl)cyclohexyl]-1-piperazinyl]ethyl]-6-[2-(1,3-thiazol-2-yl)ethyl]-1,4-dihydro-3,5-pyridinedicarboxylate]
20 | 188 to 193 °C (dec.) | COC(=O)C1=C(CCc2nccs2)NC(CC(=O)N2CCN(CCCN3C(=O)CCC3C)CC2)=C(C(=O)OC)C1c1c(Cl)cccc1Cl (stereo not shown) (as salt: HCl) [Example 29, Dimethyl 4-(2,6-dichlorophenyl)-2-[2-[4-[3-(2-methyl-5-oxo1-pyrrolidinyl)propyl]-1-piperazinyl]-2-oxoethyl]-6-[2-(1,3-thiazol-2-yl)ethyl]-1,4-dihydro-3,5-pyridinedicarboxylate]
21 | 179 °C (dec.) | COC(=O)C1=C(CCc2nccs2)NC(CC(=O)N2CCN(CCC(C)(C)N3CCCC3=O)CC2)=C(C(=O)OC)C1c1c(Cl)cccc1Cl (stereo not shown) (as salt: HCl) [Example 20, Dimethyl 4-(2,6-dichlorophenyl)-2-[2-[4-[3-methyl-3-(2-oxo-1-pyrrolidinyl)butyl]-1-piperazinyl]-2-oxoethyl]-6-[2-(1,3-thiazol-2-yl)ethyl]-1,4-dihydro-3,5-pyridinedicarboxylate]
22 | 185 to 190 °C (dec.) | COC(=O)C1=C(CCc2nccs2)NC(CC(=O)N2CCN(CCCN3CCCC3=O)CC2)=C(C(=O)OC)C1c1c(Cl)cccc1Cl (stereo not shown) (as salt: HCl) [Example 22, Dimethyl 4-(2,6-dichlorophenyl)-2-[2-oxo-2-[4-[3-(2-oxo-1-pyrrolidinyl)propyl]-1-piperazinyl]ethyl]-6-[2-(1,3-thiazol-2-yl)ethyl]-1,4-dihydro-3,5-pyridinedicarboxylate]
